# Experimental data as given in PMC12150326 (The Journal of Organic Chemistry, 2025).
# Like-named read-outs stand apart in the source and are kept apart here.
# Key:
# Type in all cases: cell-based, human
# CAKI-1 = tested on: CAKI-1
# Outline: (§1)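 TGI-based COMPARE analysis set the response profiles against historical NCI-60 data for established antitubulin compounds, after testing at five log-spaced doses (0.01–100 μM) in the 60-line screen.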
# COLO 205 = tested on: COLO 205
# Outline: as §1
# EKVX = tested on: EKVX
# Outline: as §1
# HCT-116 = tested on: HCT-116
# Outline: as §1
# HCT-15 = tested on: HCT-15
# Outline: as §1
# HL-60(TB) = tested on: HL-60(TB)
# Outline: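 Tested in five doses (top 100 μM, lowest 0.01 μM) within the 60 Cell Screen; COMPARE used TGI responses relative to known tubulin inhibitors.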
# HOP-62 = tested on: HOP-62
# Outline: as §1
# HS 578T = tested on: HS 578T
# Outline: as §1
# HT29 = tested on: HT29
# Outline: as §1
# K-562 = tested on: K-562
# Outline: as §1
# LOX IMVI = tested on: LOX IMVI
# Outline: as §1
# M14 = tested on: M14
# Outline: as §1
# MDA-MB-231/ATCC = tested on: MDA-MB-231/ATCC
# Outline: as §1
# MDA-MB-435 = tested on: MDA-MB-435
# Outline: as §1
# NCI-H23 = tested on: NCI-H23
# Outline: as §1
# NCI-H522 = tested on: NCI-H522
# Outline: as §1
# NCI/ADR-RES = tested on: NCI/ADR-RES
# Outline: as §1
# OVCAR-4 = tested on: OVCAR-4
# Outline: as §1
# OVCAR-8 = tested on: OVCAR-8
# Outline: as §1
# PC-3 = tested on: PC-3
# Outline: as §1
# RXF 393 = tested on: RXF 393
# Outline: as §1
# SK-MEL-2 = tested on: SK-MEL-2
# Outline: as §1
# SN12C = tested on: SN12C
# Outline: as §1
# SW-620 = tested on: SW-620
# Outline: as §1
# U251 = tested on: U251
# Outline: as §1
# UACC-257 = tested on: UACC-257
# Outline: as §1
# UACC-62 = tested on: UACC-62
# Outline: as §1
structure (smiles),measurement,setting,value
"COc1cc(C)c(-c2ccc(OC)c(=O)cc2C)c(OC)c1OC (single isomer, unassigned) [(aR)-6]",Log10GI50,CAKI-1,-6.03 Molar
same,Log10LC50,CAKI-1,> -4.00 Molar
same,Log10TGI,CAKI-1,> -4.00 Molar
same,GI50,CAKI-1; Homo sapiens,0.93 µM
same,Log10GI50,CAKI-1; listed as (aR)-DM-MTC,-6.03 Molar
same,Log10GI50,COLO 205,-5.76 Molar
same,Log10LC50,COLO 205,-4.74 Molar
same,Log10TGI,COLO 205,-5.35 Molar
same,GI50,COLO 205; Homo sapiens,1.74 µM
same,Log10GI50,COLO 205; listed as (aR)-DM-MTC,-5.76 Molar
same,Log10GI50,EKVX,-5.18 Molar
same,Log10LC50,EKVX,> -4.00 Molar
same,Log10TGI,EKVX,> -4.00 Molar
same,GI50,EKVX; Homo sapiens,6.61 µM
same,Log10GI50,EKVX; listed as (aR)-DM-MTC,-5.18 Molar
same,Log10GI50,HCT-116,-5.71 Molar
same,Log10LC50,HCT-116,> -4.00 Molar
same,Log10TGI,HCT-116,> -4.00 Molar
same,GI50,HCT-116; Homo sapiens,1.95 µM
same,Log10GI50,HCT-116; listed as (aR)-DM-MTC,-5.71 Molar
same,Log10GI50,HCT-15,-6.17 Molar
same,Log10LC50,HCT-15,> -4.00 Molar
same,Log10TGI,HCT-15,> -4.00 Molar
same,GI50,HCT-15; Homo sapiens,0.68 µM
same,Log10GI50,HCT-15; listed as (aR)-DM-MTC,-6.17 Molar
same,Log10GI50,HL-60(TB),-6.16 Molar
same,Log10LC50,HL-60(TB),> -4.00 Molar
same,Log10TGI,HL-60(TB),-5.10 Molar
same,GI50,HL-60(TB); Homo sapiens,0.69 µM
same,Log10GI50,HL-60(TB); listed as (aR)-DM-MTC,-6.16 Molar
same,Log10GI50,HOP-62,-5.42 Molar
same,Log10LC50,HOP-62,> -4.00 Molar
same,Log10TGI,HOP-62,> -4.00 Molar
same,GI50,HOP-62; Homo sapiens,3.8 µM
same,Log10GI50,HOP-62; listed as (aR)-DM-MTC,-5.42 Molar
same,Log10GI50,HS 578T,-5.81 Molar
same,Log10LC50,HS 578T,> -4.00 Molar
same,GI50,HS 578T; Homo sapiens,1.55 µM
same,Log10GI50,HS 578T; listed as (aR)-DM-MTC,-5.81 Molar
same,Log10GI50,HT29,-5.73 Molar
same,Log10LC50,HT29,> -4.00 Molar
same,Log10TGI,HT29,-5.02 Molar
same,GI50,"HT29; Homo sapiens, HT-29",1.86 µM
same,Log10GI50,HT29; listed as (aR)-DM-MTC,-5.73 Molar
same,Log10GI50,K-562,-6.31 Molar
same,Log10LC50,K-562,> -4.00 Molar
same,Log10TGI,K-562,> -4.00 Molar
same,GI50,"K-562; Homo sapiens, K562",0.49 µM
same,Log10GI50,K-562; listed as (aR)-DM-MTC,-6.31 Molar
same,Log10GI50,LOX IMVI,-5.69 Molar
same,Log10LC50,LOX IMVI,> -4.00 Molar
same,Log10TGI,LOX IMVI,> -4.00 Molar
same,GI50,LOX IMVI; Homo sapiens,2.04 µM
same,Log10GI50,LOX IMVI; listed as (aR)-DM-MTC,-5.69 Molar
same,Log10GI50,M14,-6.07 Molar
same,Log10LC50,M14,> -4.00 Molar
same,Log10TGI,M14,> -4.00 Molar
same,GI50,M14; Homo sapiens,0.85 µM
same,Log10GI50,M14; listed as (aR)-DM-MTC,-6.07 Molar
same,Log10GI50,MDA-MB-231/ATCC,-5.59 Molar
same,Log10LC50,MDA-MB-231/ATCC,> -4.00 Molar
same,Log10TGI,MDA-MB-231/ATCC,> -4.00 Molar
same,GI50,MDA-MB-231/ATCC; Homo sapiens,2.57 µM
same,Log10GI50,MDA-MB-231/ATCC; listed as (aR)-DM-MTC,-5.59 Molar
same,Log10GI50,MDA-MB-435,-6.57 Molar
same,Log10LC50,MDA-MB-435,> -4.00 Molar
same,Log10TGI,MDA-MB-435,-6.13 Molar
same,GI50,MDA-MB-435; Homo sapiens,0.27 µM
same,Log10GI50,MDA-MB-435; listed as (aR)-DM-MTC,-6.57 Molar
same,Log10GI50,NCI-H23,-5.39 Molar
same,Log10LC50,NCI-H23,> -4.00 Molar
same,Log10TGI,NCI-H23,> -4.00 Molar
same,GI50,NCI-H23; Homo sapiens,4.07 µM
same,Log10GI50,NCI-H23; listed as (aR)-DM-MTC,-5.39 Molar
same,Log10GI50,NCI-H522,-5.73 Molar
same,Log10LC50,NCI-H522,> -4.00 Molar
same,Log10TGI,NCI-H522,-5.27 Molar
same,GI50,NCI-H522; Homo sapiens,1.86 µM
same,Log10GI50,NCI-H522; listed as (aR)-DM-MTC,-5.73 Molar
same,Log10GI50,NCI/ADR-RES,-5.76 Molar
same,Log10LC50,NCI/ADR-RES,> -4.00 Molar
same,GI50,NCI/ADR-RES; Homo sapiens,1.74 µM
same,Log10GI50,NCI/ADR-RES; listed as (aR)-DM-MTC,-5.76 Molar
same,Log10GI50,OVCAR-4,-4.35 Molar
same,Log10LC50,OVCAR-4,> -4.00 Molar
same,Log10TGI,OVCAR-4,> -4.00 Molar
same,GI50,OVCAR-4; Homo sapiens,44.7 µM
same,Log10GI50,OVCAR-4; listed as (aR)-DM-MTC,-4.35 Molar
same,Log10GI50,OVCAR-8,-5.47 Molar
same,Log10LC50,OVCAR-8,> -4.00 Molar
same,Log10TGI,OVCAR-8,> -4.00 Molar
same,GI50,OVCAR-8; Homo sapiens,3.39 µM
same,Log10GI50,OVCAR-8; listed as (aR)-DM-MTC,-5.47 Molar
same,Log10GI50,PC-3,-5.64 Molar
same,Log10LC50,PC-3,> -4.00 Molar
same,Log10TGI,PC-3,> -4.00 Molar
same,GI50,PC-3; Homo sapiens,2.29 µM
same,Log10GI50,PC-3; listed as (aR)-DM-MTC,-5.64 Molar
same,Log10GI50,RXF 393,-5.71 Molar
same,Log10LC50,RXF 393,> -4.00 Molar
same,Log10TGI,RXF 393,> -4.00 Molar
same,GI50,RXF 393; Homo sapiens,1.95 µM
same,Log10GI50,RXF 393; listed as (aR)-DM-MTC,-5.71 Molar
same,Log10GI50,SK-MEL-2,-6.05 Molar
same,Log10LC50,SK-MEL-2,> -4.00 Molar
same,Log10TGI,SK-MEL-2,-5.18 Molar
same,GI50,SK-MEL-2; Homo sapiens,0.89 µM
same,Log10GI50,SK-MEL-2; listed as (aR)-DM-MTC,-6.05 Molar
same,Log10GI50,SN12C,-5.46 Molar
same,Log10LC50,SN12C,> -4.00 Molar
same,Log10TGI,SN12C,> -4.00 Molar
same,GI50,SN12C; Homo sapiens,3.47 µM
same,Log10GI50,SN12C; listed as (aR)-DM-MTC,-5.46 Molar
same,Log10GI50,SW-620,-5.91 Molar
same,Log10LC50,SW-620,> -4.00 Molar
same,Log10TGI,SW-620,> -4.00 Molar
same,GI50,SW-620; Homo sapiens,1.23 µM
same,Log10GI50,SW-620; listed as (aR)-DM-MTC,-5.91 Molar
same,Log10GI50,U251,-5.53 Molar
same,Log10LC50,U251,> -4.00 Molar
same,Log10TGI,U251,> -4.00 Molar
same,GI50,"U251; Homo sapiens, U-251",2.95 µM
same,Log10GI50,U251; listed as (aR)-DM-MTC,-5.53 Molar
same,Log10GI50,UACC-257,-5.11 Molar
same,Log10LC50,UACC-257,> -4.00 Molar
same,Log10TGI,UACC-257,> -4.00 Molar
same,GI50,UACC-257; Homo sapiens,7.76 µM
same,Log10GI50,UACC-257; listed as (aR)-DM-MTC,-5.11 Molar
same,Log10GI50,UACC-62,-6.03 Molar
same,Log10LC50,UACC-62,> -4.00 Molar
same,Log10TGI,UACC-62,> -4.00 Molar
same,GI50,UACC-62; Homo sapiens,0.93 µM
same,Log10GI50,UACC-62; listed as (aR)-DM-MTC,-6.03 Molar
